The source of these data is patent US10125100B2, “Kinase inhibitors” (Respivert Limited, priority 2014, dated 2018).

Each structure is given as a SMILES string. In brackets after ≈: the same amount, converted by molar mass. Counter-ions that a name gives are not always drawn. Where only a bound is given, the exact number is not on record here.

Data set [1] in a line: Stability of pharmaceutical formulations. It counts as physicochemical. Particulars: for Original Purity: 1 mg/mL solution, before storage; for Purity at week n = 1: 1 week; for Purity at week n = 2: 2 weeks; for Purity at week n = 4: 4 weeks. The protocol: The samples were sonicated to achieve clear solutions having the following properties: Osmolality (mOsm/kg): 310 (Na), 314 (HCl); pH: 7.00 (Na), 7.05 (HCl). 0.5 mL of the stock solutions were diluted to 1 mL with 20% DMSO in water & injected for purity analysis by HPLC. The remaining stock solutions were then split into aliquots of 0.5 mL in HPLC vials, and stored at various conditions in duplicate. Samples were stored at 5 and 25° C., before being analysed by HPLC at 1, 2 and 4 weeks. Separate samples were stored at 40° C. and analysed at 4 weeks.

Data set [2] in a line: Solubility in fasted-state simulated colonic fluid (FaSSCoF). It counts as physicochemical. The settings on record: for solubility thermodynamic at 24 h: 25 °C, pH 6.5, fassgf or other biorelevant, thermodynamic from solid; for pH 6.5 FaSSCoF Solubility, Run 2 / pH 6.5 FaSSCoF Solubility, Run 1: 24 h. The protocol:
The solubilities of compounds of the invention in FaSSCoF at pH 6.5 are determined using a modification of a previously-reported procedure (Vertzoni, M., et al. Pharm. Res. 2010, 27, 2187-2196). In place of the bile salt extract employed in the original procedure (which extract is no longer available), the modified procedure uses a mixture of sodium taurochlorate (0.15 g), glycocholic acid (0.15 g), ursodeoxycholic acid (0.05 g), cholic acid (0.05 g), and glycodeoxycholic acid (0.05 g). These five bile acids are ground together with a mortar and pestle to produce a fine white powder that is incorporated into the FaSSCoF, as outlined below.
Tris(hydroxymethyl)aminomethane (Tris; 0.275 g) and maleic acid (0.44 g) are dissolved in water (35 mL) to give a solution whose pH is adjusted to 6.5 by treatment with 0.5M NaOH (ca. 12 mL). The solution is then made up to 50 mL with water. A portion of this Tris/maleate buffer solution (ca. 25 mL) is added to a 0.5 L round-bottomed flask, before being treated with 0.00565 g of the bile acid mixture described above. Solutions of phosphatidylcholine (0.0111 g) in DCM (0.15 mL) and palmitic acid (0.0013 g) in DCM (0.15 mL) are added, then the organic solvent is evaporated off under reduced pressure at 40° C. until a clear solution, with no perceptible DCM odour, is achieved. The volume of the evaporated solution is adjusted to 50 mL by addition of the remainder of Tris/maleate buffer, then BSA (0.115 g) is added, before being dissolved by gentle agitation.
Test compounds are suspended in the pH 6.5 FaSSCoF medium to give a maximum final concentration of 2-10 mg/mL. The suspensions are equilibrated at 25° C. for 24 h, before being filtered through a glass fibre C filter. The filtrates are then diluted as appropriate for injection and quantification by HPLC with reference to a standard. Different volumes of the standard, diluted and undiluted sample solutions are injected and the solubilities are calculated using the peak areas determined by integration of the peak found at the same retention time as the principal peak in the standard injection.

A further data set deals with Jurkat cells. As to the kind of experiment: (r) Cell cytotoxicity assay. It counts as cell-based, human. The settings on record: 24 hours. The procedure, abridged:
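Viability read by flow cytometry as the fraction of propidium iodide-negative cells (7.5 μg/mL PI, 15 min), relative to 1.0% DMSO control. Beforehand, 1×10^5 Jurkat cells in RPMI/10% FBS were treated 24 h at 37° C., 5% CO2 with test compound at final 20, 5 or 1 μg/mL.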

Regarding `COc1cc(Nc2cc(Oc3ccc(NC(=O)Nc4cc(C(C)(C)C)cc(NS(C)(=O)=O)c4OC)c4ccccc34)ccn2)ccc1C(=O)O.Cl` [Example 1, hydrochloride salt], the “Original Purity” value in data set [1] (Sample 1) and in data set [1] (Sample 2) was 98.1% in each case. In addition, the “Purity at week n = 1” value in data set [1] (Sample 1, 5° C.) was 98.2%; in data set [1] (Sample 1, 25° C.), 98.0%; in data set [1] (Sample 2, 5° C.), 98.2%; in data set [1] (Sample 2, 25° C.), 98.0%. Moreover, the “Purity at week n = 2” value came out at 98.1% in data set [1] (Sample 1, 5° C.); 97.7% in data set [1] (Sample 1, 25° C.); 98.0% in data set [1] (Sample 2, 5° C.); 97.6% in data set [1] (Sample 2, 25° C.). In addition, the “Purity at week n = 4” value in data set [1] (Sample 1, 5° C.) is reported as 97.9%; in data set [1] (Sample 1, 25° C.), 97.2%; in data set [1] (Sample 1, 40° C.) it was 79.2%; in data set [1] (Sample 2, 5° C.) it was 98.0%; in data set [1] (Sample 2, 25° C.), 97.4%; in data set [1] (Sample 2, 40° C.) it was 80.4%.

Broadly, the solubility (thermodynamic) is solubility found after equilibrating the solid with the medium. For the compound `COc1cc(Nc2cc(Oc3ccc(NC(=O)Nc4cc(C(C)(C)C)cc(NS(C)(=O)=O)c4OC)c4ccccc34)ccn2)ccc1C(=O)N1C[C@H](O)[C@@H](O)[C@H](O)[C@H]1CO` [17(ci), N-(5-(tert-Butyl)-2-methoxy-3-(3-(4-((2-((3-methoxy-4-((2R,3R,4R,5S)-3,4,5-trihydroxy-2-(hydroxymethyl)piperidine-1-carbonyl)phenyl)amino)pyridin-4-yl)oxy)naphthalen-1-yl)ureido)phenyl)methanesulfonamide], in data set [2], the solubility (thermodynamic) at 24 h was 6 µg/mL (≈ 7.1 µM) and the “pH 6.5 FaSSCoF Solubility, Run 2” value is 0.006 mg/mL.

`COc1cc(Nc2cc(Oc3ccc(NC(=O)Nc4cc(C(C)(C)C)cc(NS(C)(=O)=O)c4OC)c4ccccc34)ccn2)ccc1C(=O)O` [Example 1, sodium salt]: in data set [1] (Sample 1, 40° C.), the “Purity at week n = 4” value amounted to 76.0%.

For `COc1cc(Nc2cc(Oc3ccc(NC(=O)Nc4cc(C(C)(C)C)cc(NS(C)(=O)=O)c4OC)c4ccccc34)ccn2)ccc1P(C)(=O)O` [44 (sodium salt), (4-((4-((4-(3-(5-(tert-Butyl)-2-methoxy-3-(methylsulfonamido)phenyl)ureido)naphthalen-1-yl)oxy)pyridin-2-yl)amino)-2-methoxyphenyl)(methyl)phosphinic acid], in data set [2], the “pH 6.5 FaSSCoF Solubility, Run 1” value is listed as more than 7.6 mg/mL and the “pH 6.5 FaSSCoF Solubility, Run 2” value is more than 5.5 mg/mL.

As to `COc1cc(Nc2cc(Oc3ccc(NC(=O)Nc4cc(C(C)(C)C)cc(NS(C)(=O)=O)c4OC)c4ccccc34)ccn2)ccc1P(C)(=O)O` [44 (ammonium salt), (4-((4-((4-(3-(5-(tert-Butyl)-2-methoxy-3-(methylsulfonamido)phenyl)ureido)naphthalen-1-yl)oxy)pyridin-2-yl)amino)-2-methoxyphenyl)(methyl)phosphinic acid], in data set [2], the “pH 6.5 FaSSCoF Solubility, Run 1” value was more than 2.4 mg/mL and the “pH 6.5 FaSSCoF Solubility, Run 2” value was more than 2.4 mg/mL.

Consider `COc1cc(Nc2cc(Oc3ccc(NC(=O)Nc4cc(NS(C)(=O)=O)cc(C(C)(C)C)c4)c4ccccc34)ccn2)ccc1C(=O)NCCCN1CCN(C)CC1` [17(bp), 4-((4-((4-(3-(3-(tert-Butyl)-5-(methylsulfonamido)phenyl)ureido)naphthalen-1-yl)oxy)pyridin-2-yl)amino)-2-methoxy-N-(3-(4-methylpiperazin-1-yl)propyl)benzamide], for which, in the data set with Jurkat cells, the “% Viability at 1 μg/mL” value worked out at 93.2%, the “% Viability at 5 μg/mL” value worked out at 41.0% and the “% Viability at 20 μg/mL” value was 2.0%. For the same compound, in data set [2], the “pH 6.5 FaSSCoF Solubility, Run 2” value is given as 0.024 mg/mL.

Turning to `COc1cc(Nc2cc(Oc3ccc(NC(=O)Nc4cc(C(C)(C)C)cc(NS(C)(=O)=O)c4OC)c4ccccc34)ccn2)ccc1C(=O)NCCNC(=O)CCC(=O)O` [17(cd) (hydrochloride salt), 4-((2-(4-((4-((4-(3-(5-(tert-Butyl)-2-methoxy-3-(methylsulfonamido)phenyl)ureido)-naphthalen-1-yl)oxy)pyridin-2-yl)amino)-2-methoxybenzamido)ethyl)amino)-4-oxobutanoic acid], in data set [2], the “pH 6.5 FaSSCoF Solubility, Run 2” value is 0.049 mg/mL.

`COc1cc(Nc2cc(Oc3ccc(NC(=O)Nc4cc(C(C)(C)C)cc(NS(C)(=O)=O)c4OC)c4ccccc34)ccn2)cc(OC)c1C(=O)NCCN1CCN(CCO)CC1` [Example 37, 4-((4-((4-(3-(5-(tert-Butyl)-2-methoxy-3-(methylsulfonamido)phenyl)ureido)naphthalen-1-yl)oxy)pyridin-2-yl)amino)-N-(2-(4-(2-hydroxyethyl)piperazin-1-yl)ethyl)-2,6-dimethoxybenzamide]: in the data set with Jurkat cells, the “% Viability at 1 μg/mL” value was 52.9%, the “% Viability at 5 μg/mL” value is 55.8% and the “% Viability at 20 μg/mL” value was found to be 28.9%. Further, the “pH 6.5 FaSSCoF Solubility, Run 2” value in data set [2] was 0.024 mg/mL.

For `COc1cc(Nc2cc(Oc3ccc(NC(=O)Nc4cc(C(C)(C)C)cc(NS(C)(=O)=O)c4OC)c4ccccc34)ccn2)ccc1C(=O)NCCC(=O)O` [17(ay) (hydrochloride salt), 3-(4-((4-((4-(3-(5-(tert-Butyl)-2-methoxy-3-(methylsulfonamido)phenyl)ureido)-naphthalen-1-yl)oxy)pyridin-2-yl)amino)-2-methoxybenzamido)propanoic acid], the “pH 6.5 FaSSCoF Solubility, Run 2” value in data set [2] is given as 0.028 mg/mL.

Regarding `COc1cc(Nc2cc(Oc3ccc(NC(=O)Nc4cc(C(C)(C)C)cc(NS(C)(=O)=O)c4OC)c4ccccc34)ccn2)ccc1C(=O)NCC(=O)O` [17(ar) (hydrochloride salt), 2-(4-((4-((4-(3-(5-(tert-Butyl)-2-methoxy-3-(methylsulfonamido)phenyl)ureido)naphthalen-1-yl)oxy)pyridin-2-yl)amino)-2-methoxybenzamido)acetic acid], the “pH 6.5 FaSSCoF Solubility, Run 2” value in data set [2] was 0.198 mg/mL.

With `COc1cc(Nc2cc(Oc3ccc(NC(=O)Nc4cc(C(C)(C)C)cc(NS(C)(=O)=O)c4OC)c4ccccc34)ccn2)ccc1C(=O)O` [1 (sodium salt), 4-((4-((4-(3-(5-(tert-Butyl)-2-methoxy-3-(methylsulfonamido)phenyl)ureido)naphthalen-1-yl)oxy)pyridin-2-yl)amino)-2-methoxybenzoic acid], the “pH 6.5 FaSSCoF Solubility, Run 2” value in data set [2] is 0.032 mg/mL.

Turning to `COc1cc(Nc2cc(Oc3ccc(NC(=O)Nc4cc(C(C)(C)C)cc(NS(C)(=O)=O)c4OC)c4ccccc34)ccn2)ccc1C(=O)NCCOCCOCCOP(=O)(O)O` [19 (sodium salt), 2-(2-(2-(4-((4-((4-(3-(5-(tert-Butyl)-2-methoxy-3-(methylsulfonamido)phenyl)ureido)-naphthalen-1-yl)oxy)pyridin-2-yl)amino)-2-methoxybenzamido)ethoxy)ethoxy)ethyl dihydrogen phosphate], in data set [2], the thermodynamic solubility at 24 h was more than 4700 µg/mL and the “pH 6.5 FaSSCoF Solubility, Run 2” value is recorded as more than 4.7 mg/mL.

With `COc1cc(Nc2nccc(Oc3ccc(NC(=O)Nc4cc(C(C)(C)C)cc(NS(C)(=O)=O)c4OC)c4ccccc34)n2)ccc1C(=O)NCCC1CCN(C)CC1` [17(an), 4-((4-((4-(3-(5-(tert-butyl)-2-methoxy-3-(methylsulfonamido)phenyl)ureido)naphthalen-1-yl)oxy)pyrimidin-2-yl)amino)-2-methoxy-N-(2-(1-methylpiperidin-4-yl)ethyl)benzamide], in the data set on Jurkat cells, the “% Viability at 1 μg/mL” value came out at 97.9%, the “% Viability at 5 μg/mL” value amounted to 37.9% and the “% Viability at 20 μg/mL” value was determined as 1.1%. In addition, in data set [2], the “pH 6.5 FaSSCoF Solubility, Run 2” value was 0.049 mg/mL.
